Data taken from patent US20230278957A1, “TREX1 INHIBITORS AND USES THEREOF” (WAKE FOREST UNIVERSITY HEALTH SCIENCES, priority 2020, published 2023).
Like-named read-outs stand apart in the source and are kept apart here.

How the values were obtained:
[1] = target: T1, recombinant hTREX1(1-242)WT (hT1) (Homo sapiens, UniProt Q9NSU2); assay: fluorescence-based exonuclease assay, hTREX1 IC50 and HTS; format: biochemical
T1 construct: recombinant hTREX1(1-242)^WT
T1 sequence (Q9NSU2 1-242): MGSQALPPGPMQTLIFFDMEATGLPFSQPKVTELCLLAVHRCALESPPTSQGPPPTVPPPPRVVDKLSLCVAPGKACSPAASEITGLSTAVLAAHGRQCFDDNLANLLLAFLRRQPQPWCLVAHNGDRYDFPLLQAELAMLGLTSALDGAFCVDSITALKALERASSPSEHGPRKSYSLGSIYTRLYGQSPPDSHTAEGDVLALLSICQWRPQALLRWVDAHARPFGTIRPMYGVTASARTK
Procedure: FIG. 1: Determining IC50 of Candidate Compounds. […] Standard time-course reactions were prepared in 150 µL volumes containing vehicle or indicated concentrations of inhibitor (Panel A= 0.1-10 µM; Panel C= 1-50 µM), incubated 1 hr at room temperature, and 20 µL samples of each reaction taken at time-points of 0, 5, 10, 20, 30, 45, & 60 minutes and quenched in 20 µL of 15X SYBR Green. Fluorescence was measured, and fluorescence versus time plots were normalized to maximal initial fluorescence and background fluorescence. Plots were fitted with nonlinear regression, then initial velocities of each reaction interpolated and normalized to vehicle-only control reactions to give percent activity. Plots of inhibitor concentration versus percent activity were fit with nonlinear regression to interpolate compound IC50. Plots were generated in Prism (GraphPad) and combined in PowerPoint. Active compounds had IC50 determined in at least three separate experiments. Panels E-F: Gel Assay Validation of Hit Compound IC50. Several hit compounds, including those shown, had their IC50 confirmed via gel assay to validate efficacy of the fluorescence-based biochemical assay. Results of the gel and fluorescence assays were in agreement for all compounds tested. Standard time-course reactions containing nicked plasmid were prepared in 150 µL volumes with the indicated concentrations of inhibitor, and incubated at room temperature. Reaction samples were taken at indicated times, quenched, dried in vacuo, resuspended, then visualized by agarose gel electrophoresis. Control lanes containing supercoiled dsDNA plasmid (‘Plasmid’) and undegraded nicked dsDNA plasmid (‘Nicked’) are included. Low-MW residual bands are ssDNA plasmid leftover from TREX1 exonuclease activity.
We altered a reported fluorescence-based exonuclease assay^17,23 for the purposes of HTS. The assay parameters were optimized to limit materials use and maximize the dynamic range of the assay readout. We used this assay to perform a HTS of the three mentioned libraries against recombinant hTREX1(1-242)^WT, hereafter abbreviated as ‘hT1’. In the case of all libraries, compounds eliciting ≤50% activity at their indicated screening concentrations were identified as ‘candidates’.
The biochemical assay used for HTS was also applied to determining candidate IC50. Briefly, time-course reactions were performed for a range of concentrations for each candidate, and plots of fluorescence vs time were normalized to the initial fluorescence of the reaction and the plate-wide background fluorescence. This normalization helped address compounds with inherent effects on the fluorescent readout. Initial velocities were calculated from normalized plots and used to calculate percent activities relative to vehicle-only control reactions. Standard dose-response curves were then constructed to interpolate candidate IC50. […] Candidates that initially tested with IC50 ≤100 µM had their IC50 redetermined in two additional, independent experiments. […] To validate the efficacy of the fluorescence-based assay at determining IC50, several of the hit compounds had their IC50 confirmed using a gel assay previously described by our lab^23. Briefly, a dsDNA plasmid is nicked, the substrate is incubated with TREX1 which degrades off (partially or completely) the nicked strand, and the reaction is quenched in ethanol, dried in vacuo, and visualized via agarose gel electrophoresis. Example data of these validation assays is provided (FIG. 1, Panels E-F).

TREX1 = target: T2, TREX1 (Homo sapiens, UniProt Q9NSU2); assay: gel-based ssDNA degradation assay, inhibition kinetics; format: biochemical; conditions: 15 nM or 515 nM FAM-labeled 30-mer oligo
T2 sequence (Q9NSU2 1-242): T1 sequence (Q9NSU2 1-242)
Procedure: Reactions are incubated at room temperature for 20 min, quenched, dried in vacuo, resuspended, and visualized on a urea-polyacrylamide gel. Initial velocities of each reaction are calculated via densitometric analysis of the gel, and then normalized to vehicle control reactions to calculate percent activities. Dose-response plots are fitted with nonlinear regression to interpolate IC50.

IC50 ([1]; experiment 1, read-out: IC50 #1): 0.3 µM
IC50 ([1]; experiment 2, read-out: IC50 #2): 1.1 µM
IC50 ([1]; experiment 3, read-out: IC50 #3): 1.5 µM
IC50 ([1]; median of three independent experiments, read-out: Median IC50): 1.1 µM
mechanism of inhibition classification (TREX1): mixed inhibitor
Structure (SMILES): O=C1c2ccccc2C(=O)c2c1cc(S(=O)(=O)O)c(O)c2O [TIM009]
